Data from patent publication EP4722207A1, “OXOISOINDOLINYL-SUBSTITUTED TETRAHYDROPYRIMIDINEDIONE DERIVATIVE AND USE THEREOF” (Gluetacs Therapeutics (Shanghai) Co., Ltd., priority 2023, dated 2024).

Assays:
Format in all cases: cell-based
Conditions in all cases: compounds at 50 nM and 500 nM, 24 hours
GSPT1 = molecular target: T1, GSPT1 (Homo sapiens, UniProt P15170+Q96SW2); test: Western-blot assay, substrate protein degradation in hPBMCs: GSPT1
T1 construct: effects of the compounds of the present disclosure on the expression of target proteins in cells; endogenous in cells; host or cells: human PBMCs (hPBMCs)
Protocol: (§1) Conventional Western blot assay was performed to evaluate the effects of the compounds of the present disclosure on the expression of target proteins in cells. • (1) Cell Seeding and Protein Harvesting: Human peripheral blood mononuclear cells (hPBMCs) at a density of 1x10^6 cells/mL were thawed according to the PBMC Recovery Protocol (Milecell Biotechnologies Inc, Shanghai). […] After 24 hours of compounds treatment, cells were harvested and lysed in RIPA protein lysate containing protease inhibitors on ice for 30 min, followed by centrifugation. The supernatant was aspirated as the extracted total cell protein. The protein concentration of the supernatant was determined using the conventional BCA (Bicinchoninic Acid) assay. • (2) To the collected supernatant, 5X SDS sample loading buffer was added, followed by denaturation at 95°C for 5 minutes. The denatured samples were then separated by SDS-PAGE electrophoresis on a polyacrylamide gel. Proteins were transferred to a nitrocellulose membrane (0.45 µm NC membrane), blocked with blocking buffer at room temperature for 1 hour, and subjected to antibody incubation and development procedures according to the antibody manufacturer's instructions (Cell Signaling Technology).
(§2) Half-Maximal Degradation Concentration value (the drug concentration required for degrading proteins by 50%, abbreviated as DC50) reads method: comparing the grayscale values of Western blot bands from drug-treated samples with those from blank DMSO-treated controls, and identifying the drug concentration range at which the grayscale value is half that of the DMSO-treated control bands.
(§3) DC50 values can be calculated using ImageJ software to measure grayscale values of Western blot bands from drug-treated samples. The concentration-response curve is fitted to estimate the drug concentration corresponding to half the grayscale value.
(§4) Target protein remaining (%) refers to the percentage of target protein remaining in cells after treatment with protein degrader compounds.
(§5) Calculation method for target protein remaining (%): Use ImageJ software to measure grayscale values of Western blot bands from drug (protein degrader)-treated samples. The grayscale value of drug-treated bands is divided by that of internal control protein bands, and the resulting quotient is normalized to obtain the relative percentage of remaining target protein after protein degrader treatment. Target protein degradation rate(%) = 1−target protein remaining(%). [formula]

IKZF2 = molecular target: T2, IKZF2 (Homo sapiens, UniProt Q96SW2+Q9UKS7); test: Western-blot assay, substrate protein degradation in hPBMCs: IKZF2
T2 construct: effects of the compounds of the present disclosure on the expression of target proteins in cells; endogenous in cells; host or cells: human PBMCs (hPBMCs)
Protocol: as §1, §2, §3, §4, §5

CK1α = molecular target: T3, CK1α (Homo sapiens, UniProt P48729+Q96SW2); test: Western-blot assay, substrate protein degradation in hPBMCs: CK1α
T3 construct: effects of the compounds of the present disclosure on the expression of target proteins in cells; endogenous in cells; host or cells: human PBMCs (hPBMCs)
Protocol: as §1, §2, §3, §4, §5

WEE1 = molecular target: T4, WEE1 (Homo sapiens, UniProt P30291+Q96SW2); test: Western-blot assay, substrate protein degradation in hPBMCs: WEE1
T4 construct: effects of the compounds of the present disclosure on the expression of target proteins in cells; endogenous in cells; host or cells: human PBMCs (hPBMCs)
Protocol: as §1, §2, §3, §4, §5

IKZF3 = molecular target: T5, IKZF3 (Homo sapiens, UniProt Q96SW2+Q9UKT9); test: Western-blot assay, substrate protein degradation in hPBMCs: IKZF3
T5 construct: effects of the compounds of the present disclosure on the expression of target proteins in cells; endogenous in cells; host or cells: human PBMCs (hPBMCs)
Protocol: as §1, §2, §3, §4, §5

IKZF1 = molecular target: T6, IKZF1 (Homo sapiens, UniProt Q13422+Q96SW2); test: Western-blot assay, substrate protein degradation in hPBMCs: IKZF1
T6 construct: effects of the compounds of the present disclosure on the expression of target proteins in cells; endogenous in cells; host or cells: human PBMCs (hPBMCs)
Protocol: as §1, §2, §3, §4, §5

T6 sequence (Q13422 whole entry): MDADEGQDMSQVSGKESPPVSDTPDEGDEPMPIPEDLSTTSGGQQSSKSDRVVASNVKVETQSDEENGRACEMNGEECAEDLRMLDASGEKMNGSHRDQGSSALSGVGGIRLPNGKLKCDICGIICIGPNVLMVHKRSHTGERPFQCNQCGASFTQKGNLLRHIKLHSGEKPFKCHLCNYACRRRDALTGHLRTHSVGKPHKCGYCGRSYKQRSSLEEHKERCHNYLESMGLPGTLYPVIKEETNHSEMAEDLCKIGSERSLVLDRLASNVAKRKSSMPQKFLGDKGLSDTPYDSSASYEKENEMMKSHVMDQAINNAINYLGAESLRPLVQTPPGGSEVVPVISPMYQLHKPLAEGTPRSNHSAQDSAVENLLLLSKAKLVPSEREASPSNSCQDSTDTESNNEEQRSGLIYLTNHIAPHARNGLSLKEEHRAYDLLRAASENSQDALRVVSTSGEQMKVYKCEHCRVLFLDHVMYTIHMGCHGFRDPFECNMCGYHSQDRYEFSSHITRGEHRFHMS
T6 sequence (Q96SW2 whole entry): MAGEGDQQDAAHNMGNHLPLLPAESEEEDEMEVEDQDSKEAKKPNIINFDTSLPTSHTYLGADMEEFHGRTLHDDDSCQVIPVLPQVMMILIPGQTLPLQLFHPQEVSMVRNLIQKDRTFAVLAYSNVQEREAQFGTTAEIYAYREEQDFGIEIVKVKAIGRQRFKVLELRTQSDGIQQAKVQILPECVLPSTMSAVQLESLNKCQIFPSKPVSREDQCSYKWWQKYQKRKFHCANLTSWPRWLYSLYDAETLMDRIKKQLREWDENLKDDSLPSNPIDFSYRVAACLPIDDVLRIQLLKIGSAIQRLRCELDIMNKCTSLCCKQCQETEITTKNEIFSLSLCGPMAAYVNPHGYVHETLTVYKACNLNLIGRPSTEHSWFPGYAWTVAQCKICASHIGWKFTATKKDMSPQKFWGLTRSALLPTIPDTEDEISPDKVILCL
T6 sequence (Q16531 whole entry partner): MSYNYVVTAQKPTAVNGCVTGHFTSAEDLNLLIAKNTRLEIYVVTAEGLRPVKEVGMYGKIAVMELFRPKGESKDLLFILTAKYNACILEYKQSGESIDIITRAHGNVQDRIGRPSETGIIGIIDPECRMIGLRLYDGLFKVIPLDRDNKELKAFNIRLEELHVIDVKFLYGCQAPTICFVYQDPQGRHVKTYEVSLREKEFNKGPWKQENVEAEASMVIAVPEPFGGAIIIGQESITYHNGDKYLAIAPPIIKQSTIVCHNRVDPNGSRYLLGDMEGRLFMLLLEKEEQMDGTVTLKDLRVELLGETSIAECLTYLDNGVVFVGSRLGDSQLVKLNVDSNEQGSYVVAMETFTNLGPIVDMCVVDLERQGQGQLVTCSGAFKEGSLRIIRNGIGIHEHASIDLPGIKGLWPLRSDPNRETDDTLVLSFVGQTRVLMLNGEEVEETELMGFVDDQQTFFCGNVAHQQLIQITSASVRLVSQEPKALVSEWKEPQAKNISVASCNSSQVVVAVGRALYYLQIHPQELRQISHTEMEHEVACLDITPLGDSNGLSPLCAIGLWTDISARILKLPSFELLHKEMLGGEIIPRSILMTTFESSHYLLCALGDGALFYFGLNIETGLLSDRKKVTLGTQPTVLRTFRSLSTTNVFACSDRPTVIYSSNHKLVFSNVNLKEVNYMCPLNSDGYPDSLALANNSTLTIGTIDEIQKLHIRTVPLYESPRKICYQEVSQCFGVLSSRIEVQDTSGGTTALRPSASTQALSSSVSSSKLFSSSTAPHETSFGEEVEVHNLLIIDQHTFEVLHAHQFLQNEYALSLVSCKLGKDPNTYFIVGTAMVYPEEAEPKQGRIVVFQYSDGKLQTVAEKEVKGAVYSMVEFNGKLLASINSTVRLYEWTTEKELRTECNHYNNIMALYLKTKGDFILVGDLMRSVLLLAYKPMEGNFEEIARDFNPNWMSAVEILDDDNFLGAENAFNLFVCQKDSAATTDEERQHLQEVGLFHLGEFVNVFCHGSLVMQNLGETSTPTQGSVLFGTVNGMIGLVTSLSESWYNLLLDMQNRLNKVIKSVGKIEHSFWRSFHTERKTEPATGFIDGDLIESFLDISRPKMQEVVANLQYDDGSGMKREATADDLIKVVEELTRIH
T4 sequence (P30291 whole entry): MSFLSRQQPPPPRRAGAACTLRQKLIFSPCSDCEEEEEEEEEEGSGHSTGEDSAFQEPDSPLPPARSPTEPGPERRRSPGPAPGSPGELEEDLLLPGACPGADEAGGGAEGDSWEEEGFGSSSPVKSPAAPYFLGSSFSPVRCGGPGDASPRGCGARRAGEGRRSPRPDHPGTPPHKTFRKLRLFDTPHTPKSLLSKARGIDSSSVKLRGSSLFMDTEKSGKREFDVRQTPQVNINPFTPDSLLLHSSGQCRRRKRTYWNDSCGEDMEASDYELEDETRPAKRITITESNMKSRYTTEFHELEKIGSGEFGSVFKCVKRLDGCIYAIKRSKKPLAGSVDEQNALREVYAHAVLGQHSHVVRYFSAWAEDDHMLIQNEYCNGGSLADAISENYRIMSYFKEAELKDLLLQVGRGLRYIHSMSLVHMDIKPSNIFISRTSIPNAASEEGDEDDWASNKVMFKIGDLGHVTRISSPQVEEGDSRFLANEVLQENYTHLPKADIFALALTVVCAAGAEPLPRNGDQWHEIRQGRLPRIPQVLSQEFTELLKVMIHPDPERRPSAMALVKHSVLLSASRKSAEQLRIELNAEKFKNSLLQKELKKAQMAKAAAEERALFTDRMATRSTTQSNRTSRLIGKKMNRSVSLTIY
T4 sequence (Q96SW2 whole entry): as the sequence (Q96SW2 whole entry) above
T4 sequence (Q16531 whole entry partner): as the sequence (Q16531 whole entry partner) above
T1 sequence (P15170 whole entry): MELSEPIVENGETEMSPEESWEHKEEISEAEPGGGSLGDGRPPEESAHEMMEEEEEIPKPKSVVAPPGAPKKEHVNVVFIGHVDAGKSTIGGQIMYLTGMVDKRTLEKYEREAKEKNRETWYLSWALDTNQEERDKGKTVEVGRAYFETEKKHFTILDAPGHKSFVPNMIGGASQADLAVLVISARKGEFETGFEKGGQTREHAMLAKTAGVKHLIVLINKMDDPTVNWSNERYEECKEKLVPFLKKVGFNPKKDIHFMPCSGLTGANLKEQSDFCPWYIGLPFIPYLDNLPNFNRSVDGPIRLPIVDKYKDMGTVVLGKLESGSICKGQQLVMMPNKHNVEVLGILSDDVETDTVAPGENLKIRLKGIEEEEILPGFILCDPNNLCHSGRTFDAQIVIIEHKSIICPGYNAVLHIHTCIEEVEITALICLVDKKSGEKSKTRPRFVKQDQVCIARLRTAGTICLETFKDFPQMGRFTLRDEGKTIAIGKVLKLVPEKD
T1 sequence (Q96SW2 whole entry): as the sequence (Q96SW2 whole entry) above
T1 sequence (Q16531 whole entry partner): as the sequence (Q16531 whole entry partner) above
T2 sequence (Q9UKS7 whole entry): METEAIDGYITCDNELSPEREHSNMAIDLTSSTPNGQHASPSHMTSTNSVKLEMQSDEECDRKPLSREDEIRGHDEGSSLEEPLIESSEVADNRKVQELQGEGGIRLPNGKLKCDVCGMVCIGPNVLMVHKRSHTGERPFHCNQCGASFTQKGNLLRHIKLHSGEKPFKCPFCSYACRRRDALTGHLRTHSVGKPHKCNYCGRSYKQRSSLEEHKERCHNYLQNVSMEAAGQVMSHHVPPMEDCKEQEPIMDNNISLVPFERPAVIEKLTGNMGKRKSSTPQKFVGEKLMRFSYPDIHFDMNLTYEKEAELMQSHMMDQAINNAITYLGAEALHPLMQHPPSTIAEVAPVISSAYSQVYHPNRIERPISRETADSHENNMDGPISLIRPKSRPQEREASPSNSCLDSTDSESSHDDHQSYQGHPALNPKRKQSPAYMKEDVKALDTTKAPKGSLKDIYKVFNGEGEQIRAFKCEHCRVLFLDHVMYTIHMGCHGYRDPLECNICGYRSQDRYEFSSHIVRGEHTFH
T2 sequence (Q96SW2 whole entry): as the sequence (Q96SW2 whole entry) above
T2 sequence (Q16531 whole entry partner): as the sequence (Q16531 whole entry partner) above
T5 sequence (Q9UKT9 whole entry): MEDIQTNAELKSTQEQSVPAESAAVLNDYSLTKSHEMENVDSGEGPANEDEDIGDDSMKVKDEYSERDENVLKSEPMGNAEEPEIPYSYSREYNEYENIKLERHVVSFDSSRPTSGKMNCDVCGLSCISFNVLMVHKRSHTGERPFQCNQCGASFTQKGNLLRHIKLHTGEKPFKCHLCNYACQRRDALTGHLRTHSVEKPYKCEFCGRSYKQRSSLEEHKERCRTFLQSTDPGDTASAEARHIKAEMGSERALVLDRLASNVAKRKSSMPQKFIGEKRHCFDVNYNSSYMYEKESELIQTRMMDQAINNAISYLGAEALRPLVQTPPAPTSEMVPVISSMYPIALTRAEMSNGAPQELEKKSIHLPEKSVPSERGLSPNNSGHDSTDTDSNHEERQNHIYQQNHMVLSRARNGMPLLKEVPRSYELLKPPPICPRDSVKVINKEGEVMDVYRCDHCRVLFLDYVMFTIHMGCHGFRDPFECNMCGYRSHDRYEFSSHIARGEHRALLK
T5 sequence (Q96SW2 whole entry): as the sequence (Q96SW2 whole entry) above
T5 sequence (Q16531 whole entry partner): as the sequence (Q16531 whole entry partner) above

SMILES	GSPT1 substrate protein remaining % (GSPT1)	IKZF2 substrate protein remaining % (IKZF2)	CK1α substrate protein remaining % (CK1α)	WEE1 substrate protein remaining % (WEE1)	IKZF3 substrate protein remaining % (IKZF3)	IKZF1 substrate protein remaining % (IKZF1)
O=C1CCN(N2Cc3cc(CN4CCN(c5cc(Cl)ccn5)CC4)ccc3C2=O)C(=O)N1 [GT-05128, 1-(5-((4-(4-chloropyridin-2-yl)piperazin-1-yl)methyl)-1-oxoisoindolin-2-yl)dihydropyrimidine-2,4(1H,3H)-dione]	A ("A" is defined as 0% ≤ substrate protein remaining % ≤ 80%)	A ("A" is defined as 0% ≤ substrate protein remaining % ≤ 80%)	A ("A" is defined as 0% ≤ substrate protein remaining % ≤ 80%)	A ("A" is defined as 0% ≤ substrate protein remaining % ≤ 80%)	A ("A" is defined as 0% ≤ substrate protein remaining % ≤ 80%)	A ("A" is defined as 0% ≤ substrate protein remaining % ≤ 80%)
O=C1CCN(N2Cc3cc(CN4CCN(c5ncccc5F)CC4)ccc3C2=O)C(=O)N1 [GT-05129, 1-(5-((4-(3-fluoropyridin-2-yl)piperazin-1-yl)methyl)-1-oxoisoindolin-2-yl)dihydropyrimidine-2,4(1H,3H)-dione]	A ("A" is defined as 0% ≤ substrate protein remaining % ≤ 80%)	A ("A" is defined as 0% ≤ substrate protein remaining % ≤ 80%)	A ("A" is defined as 0% ≤ substrate protein remaining % ≤ 80%)	A ("A" is defined as 0% ≤ substrate protein remaining % ≤ 80%)	A ("A" is defined as 0% ≤ substrate protein remaining % ≤ 80%)	A ("A" is defined as 0% ≤ substrate protein remaining % ≤ 80%)
O=C1CCN(N2Cc3cc(CN4CCN(c5cccc(F)n5)CC4)ccc3C2=O)C(=O)N1 [GT-05130, 1-(5-((4-(6-fluoropyridin-2-yl)piperazin-1-yl)methyl)-1-oxoisoindolin-2-yl)dihydropyrimidine-2,4(1H,3H)-dione]	A ("A" is defined as 0% ≤ substrate protein remaining % ≤ 80%)	A ("A" is defined as 0% ≤ substrate protein remaining % ≤ 80%)	A ("A" is defined as 0% ≤ substrate protein remaining % ≤ 80%)	A ("A" is defined as 0% ≤ substrate protein remaining % ≤ 80%)	A ("A" is defined as 0% ≤ substrate protein remaining % ≤ 80%)	A ("A" is defined as 0% ≤ substrate protein remaining % ≤ 80%)
O=C1CCN(N2Cc3cc(CN4CCN(c5ccc(F)cn5)CC4)ccc3C2=O)C(=O)N1 [GT-05131, 1-(5-((4-(5-fluoropyridin-2-yl)piperazin-1-yl)methyl)-1-oxoisoindolin-2-yl)dihydropyrimidine-2,4(1H,3H)-dione]	A ("A" is defined as 0% ≤ substrate protein remaining % ≤ 80%)	A ("A" is defined as 0% ≤ substrate protein remaining % ≤ 80%)	A ("A" is defined as 0% ≤ substrate protein remaining % ≤ 80%)	A ("A" is defined as 0% ≤ substrate protein remaining % ≤ 80%)	A ("A" is defined as 0% ≤ substrate protein remaining % ≤ 80%)	A ("A" is defined as 0% ≤ substrate protein remaining % ≤ 80%)
O=C1CCN(N2Cc3cc(CN4C5CC4CN(c4cccc(Cl)c4Cl)C5)ccc3C2=O)C(=O)N1 [GT-05162, 1-(5-((3-(2,3-dichlorophenyl)-3,6-diazabicyclo[3.1.1]heptan-6-yl)methyl)-1-oxoisoindolin-2-yl)dihydropyrimidine-2,4(1H,3H)-dione]	A ("A" is defined as 0% ≤ substrate protein remaining % ≤ 80%)	B ("B" is defined as 80%< substrate protein remaining %≤ 100%)	B ("B" is defined as 80%< substrate protein remaining %≤ 100%)	B ("B" is defined as 80%< substrate protein remaining %≤ 100%)	A ("A" is defined as 0% ≤ substrate protein remaining % ≤ 80%)	B ("B" is defined as 80%< substrate protein remaining %≤ 100%)
O=C1CCN(N2C(=O)c3ccc(CN4CCC(N(c5ccccc5)c5ccccc5)CC4)cc3C2=O)C(=O)N1 [GT-05177, 2-(2,4-dioxotetrahydropyrimidin-1(2H)-yl)-5-((4-(diphenylamino)piperidin-1-yl)methyl)isoindoline-1,3-dione]	A ("A" is defined as 0% ≤ substrate protein remaining % ≤ 80%)	B ("B" is defined as 80%< substrate protein remaining %≤ 100%)	B ("B" is defined as 80%< substrate protein remaining %≤ 100%)	B ("B" is defined as 80%< substrate protein remaining %≤ 100%)	B ("B" is defined as 80%< substrate protein remaining %≤ 100%)	B ("B" is defined as 80%< substrate protein remaining %≤ 100%)
O=C1CCN(N2C(=O)c3ccc(CN4CCC(Nc5ccccc5-c5ccc(Cl)cc5)CC4)cc3C2=O)C(=O)N1 [GT-05179, 5-((4-((4'-chloro-[1,1'-biphenyl]-2-yl)amino)piperidin-1-yl)methyl)-2-(2,4-dioxotetrahydropyrimidin-1(2H)-yl)isoindoline-1,3-dione]	B ("B" is defined as 80%< substrate protein remaining %≤ 100%)	B ("B" is defined as 80%< substrate protein remaining %≤ 100%)	B ("B" is defined as 80%< substrate protein remaining %≤ 100%)	A ("A" is defined as 0% ≤ substrate protein remaining % ≤ 80%)	B ("B" is defined as 80%< substrate protein remaining %≤ 100%)	B ("B" is defined as 80%< substrate protein remaining %≤ 100%)
CC1(C)CCC(CN2CCN(Cc3ccc4c(c3)C(=O)N(N3CCC(=O)NC3=O)C4=O)CC2)=C(c2ccc(Cl)cc2)C1 [GT-05180, 5-((4-((4'-chloro-5,5-dimethyl-3,4,5,6-tetrahydro-[1,1'-biphenyl]-2-yl)methyl)piperazin-1-yl)methyl)-2-(2,4-dioxotetrahydropyrimidin-1(2H)-yl)isoindoline-1,3-dione]	B ("B" is defined as 80%< substrate protein remaining %≤ 100%)	B ("B" is defined as 80%< substrate protein remaining %≤ 100%)	B ("B" is defined as 80%< substrate protein remaining %≤ 100%)	A ("A" is defined as 0% ≤ substrate protein remaining % ≤ 80%)	B ("B" is defined as 80%< substrate protein remaining %≤ 100%)	B ("B" is defined as 80%< substrate protein remaining %≤ 100%)
O=C1CCN(N2C(=O)c3ccc(CN4CC=C(c5c[nH]c6ncccc56)CC4)cc3C2=O)C(=O)N1 [GT-05181, 5-((4-(1H-pyrrolo[2,3-b]pyridin-3-yl)-3,6-dihydropyridin-1(2H)-yl)methyl)-2-(2,4-dioxotetrahydropyrimidin-1(2H)-yl)isoindoline-1,3-dione]	B ("B" is defined as 80%< substrate protein remaining %≤ 100%)	B ("B" is defined as 80%< substrate protein remaining %≤ 100%)	B ("B" is defined as 80%< substrate protein remaining %≤ 100%)	A ("A" is defined as 0% ≤ substrate protein remaining % ≤ 80%)	B ("B" is defined as 80%< substrate protein remaining %≤ 100%)	B ("B" is defined as 80%< substrate protein remaining %≤ 100%)
